Laboratory results: patent US6465429B1, “Antimicrobial cationic peptides” (priority 1995, dated 2002)

Tests used:
A. calcoaceticus = assay: Synergy of peptide and antibiotic, MIC and FIC (checkerboard); assay type: cell-based; conditions: Acinetobacter calcoaceticus, agent alone
Description: (§1) FICs are performed by checkerboard titrations of peptides in one dimension of a microtiter plate, and of antibiotics in the other dimension, for example. The FIC is calculated by looking at the impact of one antibiotic on the MIC of the other and vice versa. […] Preferably, an FIC of less than 0.5 is obtained for synergism. As used herein, FIC can be determined as follows: [formula]
(§2) Synergism is identified as an FIC of about ≦0.5.

X. maltophila = assay: as above; assay type: cell-based; conditions: agent alone
Description: as §1, §2

E. cloacae = assay: as above; assay type: cell-based; conditions: Enterobacter cloacae, agent alone
Description: as §1, §2

P. aeruginosa = assay: microbe, parasite or virus in culture; conditions: Pseudomonas aeruginosa, agent alone
Description: as §1, §2

[1] = A. calcoaceticus isolate 1, strain ATCC 23055
[2] = A. calcoaceticus isolate 4, strain 28
[3] = A. calcoaceticus isolate 5, strain 8220
[4] = A. calcoaceticus isolate 6, strain 8221
[5] = A. calcoaceticus isolate 7, strain 8222
[6] = A. calcoaceticus isolate 8, strain 8223
[7] = A. calcoaceticus isolate 9, strain 8224
[8] = A. calcoaceticus isolate 2, strain 23
[9] = X. maltophila isolate 35, strain 6
[10] = X. maltophila isolate 36, strain 16
[11] = X. maltophila isolate 37, strain 3095
[12] = X. maltophila isolate 40, strain R1302-1
[13] = X. maltophila isolate 41, strain R4230
[14] = X. maltophila isolate 42, strain TF29-1
[15] = X. maltophila isolate 43, strain TF29-2
[16] = X. maltophila isolate 44, strain W6896-2
[17] = E. cloacae isolate 12, strain ATCC 13047
[18] = E. cloacae isolate 13, strain 37-1
[19] = E. cloacae isolate 14, strain 938-2
[20] = E. cloacae isolate 15, strain B5546
[21] = E. cloacae isolate 16, strain R4148
[22] = E. cloacae isolate 17, strain R4148-2
[23] = E. cloacae isolate 18, strain 3077
[24] = E. cloacae isolate 19, strain 3356
[25] = E. cloacae isolate 20, strain 14269
[26] = E. cloacae isolate 21, strain 14661
[27] = E. cloacae isolate 22, strain 18801
[28] = P. aeruginosa isolate 23, strain ATCC 27853
[29] = P. aeruginosa isolate 24, strain 34
[30] = P. aeruginosa isolate 25, strain 923-1
[31] = P. aeruginosa isolate 26, strain 3101
[32] = P. aeruginosa isolate 27, strain 14644
[33] = P. aeruginosa isolate 28, strain 15036
[34] = P. aeruginosa isolate 29, strain 15545
[35] = P. aeruginosa isolate 30, strain B3999-1

Compound | MIC (A. calcoaceticus; [1]) | MIC (A. calcoaceticus; [2]) | MIC (A. calcoaceticus; [3]) | MIC (A. calcoaceticus; [4]) | MIC (A. calcoaceticus; [5]) | MIC (A. calcoaceticus; [6]) | MIC (A. calcoaceticus; [7]) | MIC (A. calcoaceticus; [8]) | MIC (X. maltophila; [9]) | MIC (X. maltophila; [10]) | MIC (X. maltophila; [11]) | MIC (X. maltophila; [12]) | MIC (X. maltophila; [13]) | MIC (X. maltophila; [14]) | MIC (X. maltophila; [15]) | MIC (X. maltophila; [16]) | MIC (E. cloacae; [17]) | MIC (E. cloacae; [18]) | MIC (P. aeruginosa; [32]) | MIC (P. aeruginosa; [33]) | also measured
CC(C)(O/N=C(\C(=O)N[C@@H]1C(=O)N2C(C(=O)[O-])=C(C[n+]3ccccc3)CS[C@H]12)c1csc(N)n1)C(=O)O [Ceftazidime] | 2 µg/mL | 16 µg/mL | 16 µg/mL | 8 µg/mL | 16 µg/mL | 16 µg/mL | 64 µg/mL | 128 µg/mL | 64 µg/mL | 32 µg/mL | 512 µg/mL | 16 µg/mL | 4 µg/mL | 4 µg/mL | 4 µg/mL | 64 µg/mL | 4 µg/mL | 2 µg/mL | 128 µg/mL | 2 µg/mL | MIC (X. maltophila; X. maltophila isolate 34, strain ATCC 13637): 64 µg/mL; MIC (X. maltophila; X. maltophila isolate 39, strain B3110.1): 64 µg/mL; MIC (E. cloacae; [19]): 2 µg/mL; MIC (E. cloacae; [20]): 2 µg/mL; MIC (E. cloacae; [21]): 512 µg/mL; MIC (E. cloacae; [22]): 512 µg/mL; MIC (E. cloacae; [23]): 2 µg/mL; MIC (E. cloacae; [24]): 128 µg/mL; MIC (E. cloacae; [25]): 512 µg/mL; MIC (E. cloacae; [26]): 512 µg/mL; MIC (E. cloacae; [27]): 2 µg/mL; MIC (P. aeruginosa; [28]): 32 µg/mL; MIC (P. aeruginosa; [29]): 32 µg/mL; MIC (P. aeruginosa; [30]): 4 µg/mL; MIC (P. aeruginosa; [31]): 8 µg/mL; MIC (P. aeruginosa; [34]): 8 µg/mL; MIC (P. aeruginosa; [35]): 16 µg/mL; MIC (P. aeruginosa; P. aeruginosa isolate 33, strain W5483-2): 8 µg/mL
O=C(O)c1cn(C2CC2)c2cc(N3CCNCC3)c(F)cc2c1=O [Ciprofloxacin] | – | 8 µg/mL | – | – | – | – | – | – | 4 µg/mL | 8 µg/mL | 16 µg/mL | 4 µg/mL | 4 µg/mL | 8 µg/mL | 8 µg/mL | 4 µg/mL | – | – | 32 µg/mL | 16 µg/mL | MIC (A. calcoaceticus; A. calcoaceticus isolate 3, strain 27): 8 µg/mL; MIC (X. maltophila; X. maltophila isolate 38, strain 7901): 32 µg/mL; MIC (X. maltophila; X. maltophila isolate 45, strain W11291): 4 µg/mL
C[C@@H](O)[C@H]1C(=O)N2C(C(=O)O)=C(SCCN=CN)C[C@H]12 [Imipenem] | 2 µg/mL | 16 µg/mL | 2 µg/mL | 1 µg/mL | 4 µg/mL | 2 µg/mL | 2 µg/mL | 512 µg/mL | – | – | – | – | – | – | – | – | 1 µg/mL | 2 µg/mL | 16 µg/mL | 16 µg/mL | MIC (A. calcoaceticus; A. calcoaceticus isolate 10, strain 8225): 2 µg/mL; MIC (A. calcoaceticus; A. calcoaceticus isolate 11, strain 8226): 4 µg/mL; MIC (E. cloacae; [19]): 4 µg/mL; MIC (E. cloacae; [20]): 2 µg/mL; MIC (E. cloacae; [21]): 4 µg/mL; MIC (E. cloacae; [22]): 2 µg/mL; MIC (E. cloacae; [23]): 4 µg/mL; MIC (E. cloacae; [24]): 4 µg/mL; MIC (E. cloacae; [25]): 4 µg/mL; MIC (E. cloacae; [26]): 2 µg/mL; MIC (E. cloacae; [27]): 2 µg/mL; MIC (P. aeruginosa; [28]): 8 µg/mL; MIC (P. aeruginosa; [29]): 512 µg/mL; MIC (P. aeruginosa; [30]): 4 µg/mL; MIC (P. aeruginosa; [31]): 8 µg/mL; MIC (P. aeruginosa; [34]): 256 µg/mL; MIC (P. aeruginosa; [35]): 256 µg/mL
